Source: patent publication US10137101B2, “Alkylamido compounds and uses thereof” (Nogra Pharma Limited, priority 2009, dated 2018)

What was measured:
Colitis in C57bI6 mice = assay: Anti-murine colitis model (TNBS); format: in vivo
Description: Colitis in C57bI6 mice is induced by administering TNBS (150 mg/kg) by oral gavage on day −3. Stool samples were taken 8 hours after administration. At day 0-5, N-acetylated E2 (30 mM) was administrated by oral gavage. On day 5, mice were analyzed to obtain a mortality macroscopic score (Wallace, Gastroenterology 96: 29-36, 1989).

sebocytes [1] = assay: Sebogenesis induced by linoleic acid and testosterone, Nile Red Assay; format: cell-based, human; conditions: LA 10^-4M, TST 20 nM, compound 1 mM
Description: Analysis of the inhibition by (compound A) of sebogenesis induced by treatment with linoleic acid (LA) and with testosterone (TST) was evaluated by spectrofluorimetry, using Nile Red as selective marker of intracellular lipids (Nile Red Assay). The sebocytes were plated in wells of a 24-well plate. Next day, they were deprived of serum (2%) and after 24 h they were stimulated, for another 24 h, with LA (10^-4M), TST (20 nM) in presence or in absence of A (1 mM). At the end of the treatment, the sebocytes were stained with Nile Red. The quantitative analysis was done by spectrofluorimetry, which made it possible to distinguish between neutral lipids and polar lipids based on the different wavelength of excitation and emission. […] (FIG. 11).
Analysis of the inhibition by compound A of sebogenesis induced by treatment with linoleic acid (LA) and with testosterone (TST) was evaluated by spectrofluorimetry, using Nile Red as selective marker of intracellular lipids (Nile Red Assay). The sebocytes were plated in wells of a 24-well plate. […] The quantitative analysis was done by spectrofluorimetry, which made it possible to distinguish between neutral lipids and polar lipids based on the different wavelength of excitation and emission.

TNF-alpha = assay: Inhibition of TNF-alpha mRNA induction by H2O2 in keratinocytes (Real time RT-PCR); format: cell-based, human; conditions: H2O2 300 μM, 6 h, FIG. 6
Description: Analysis of the inhibition of compound A of the mRNA induction of the proinflammatory cytokine TNF-alpha by H2O2 was carried out by Real time RT-PCR. The keratinocytes were plated in dishes of 6 cm/Ø. At 80% confluence, the cells were treated with H2O2 (300 μM) in presence of Compound A at the three concentrations (0.01-0.1-0.5 mM) for 6 h. At the end of the treatment, the cells were lysed in a lysis buffer and subjected to isolation and subsequent retrotranscription of the RNA. […] (FIG. 6)

[2] = tested on: human primary keratinocytes; assay: MTT test on human primary keratinocytes; format: cell-based; conditions: 0.1-1-2 mM, 24 and 48 h; FIG. 5
Description: To assess the possible toxic or cytostatic effect of the substances under study, a spectrophotometric test (MTT) was carried out. The human primary keratinocytes, isolated from skin biopsies, were plated in wells of a 24-well plate in suitable medium with addition of antibiotics, calcium, and specific growth factors. At around 70% confluence, the cells were exposed to the presence of Compound A, at various concentrations (0.1-1-2 mM), for 24 and 48 h in suitable medium with addition of antibiotics, calcium, but no growth factors. This culture condition was done for all the subsequent experiments. At the end of the treatment, the MTT test was done.

sebocytes [3] = assay: Sebogenesis induced by LA and TST, fatty acids and squalene by GC-MS; format: cell-based, human; conditions: compound 1 mM
Description: In order to evaluate in greater detail the inhibition by Compound A of sebogenesis induced by LA and TST, assays were performed on the lipid extract of the sebocytes using gas chromatography coupled with mass spectrometry (GC-MS). The sebocytes were treated by the scheme described for the Nile Red assay. At the end of the treatment, the cells were removed and then the lipid extraction was done by using organic solvents. One part of the extract was used to analyze the fatty acid composition, while the other part was used for the determination of the quantity of squalene, a lipid characteristic of sebum. […] (FIG. 12B)

IL-6 [4] = assay: Inhibition of IL-6 mRNA induction by IFN-γ in keratinocytes (Real time RT-PCR); format: cell-based, human; conditions: IFN-γ 30 ng/ml, 6 h; 0.01-0.1-0.5 mM; FIG. 7
Description: Analysis of the inhibition by compound A of the mRNA induction of the proinflammatory cytokine IL-6 by IFN-γ was done through Real time RT-PCR. The keratinocytes were plated in dishes of 6 cm/Ø.
At 80% confluence, the cells were treated with IFN-γ (30 ng/ml) in presence of compound A (N-Acetylged) at the three concentrations (0.01-0.1-0.5 mM) for 6 h.

sebocytes [5] = assay: MTT test on human sebocytes; format: cell-based; conditions: 0.1-0.5-1-2 mM, 24 and 48 h; FIG. 10
Description: To assess the possible toxic or cytostatic effect of the substances under study, a spectrophotometric test (MTT) was carried out. The sebocytes were plated in wells of a 24-well plate in suitable medium with addition of antibiotics, calcium and EGF. At roughly 70% confluence, the cells were exposed to the presence of compound A, in various concentrations (0.1-0.5-1-2 mM), for 24 and 48 h. At the end of the treatment, the MTT test was performed. […] (FIG. 10)

IL-6 [6] = assay: Inhibition of IL-6 protein induction by LPS in keratinocytes (ELISA); format: cell-based, human; conditions: LPS 10 μg/ml, 24 h; 0.01-0.1-0.5 mM; FIG. 9
Description: Analysis of the inhibition by Compound A of the protein induction of IL-6 by LPS (lipopolysaccharide) was done with the ELISA kit. The keratinocytes were plated in wells of a 24-well plate. At 80% confluence, the cells were treated with LPS (10 μg/ml) in presence of compound A at the three concentrations (0.01-0.1-0.5 mM) for 24 h. At the end of the treatment, the supernatant was decanted, centrifuged so as to remove any cell detritus, and kept at −80° C. until the time of the analysis. The quantity of IL-6 present in the supernatant was normalized by the protein concentration of the sample itself.

Q: What does the source list for `CO[C@H](Cc1ccc(NC(C)=O)cc1)C(=O)O` [Compound A, N-acetyl-(R)-(−)-3-(4-aminophenyl)-2-methoxypropionic acid]?
A: % mortality (Colitis in C57bI6 mice; TNBS 150 mg/kg oral gavage day -3, N-acetylated E2 30 mM oral gavage day 0-5, versus TNBS alone, FIG. 1): comparable; MPO (myleoperoxidase) activity (Colitis in C57bI6 mice; TNBS + N-acetyl E2 30 mM oral gavage versus TNBS alone, FIG. 3): decreased; colonic inflammation (Ameho score) (Colitis in C57bI6 mice; TNBS + N-acetyl E2 30 mM oral gavage versus TNBS alone, FIG. 4): colonic inflammation had decreased; level of colonic lesions (Wallace macroscopic score) (Colitis in C57bI6 mice; TNBS + N-acetyl E2 30 mM oral gavage versus TNBS alone, day 5, FIG. 2): significantly less; inhibition of sebogenesis (intracellular lipids, Nile Red) (sebocytes [1]; 24 h, FIG. 11, FIG. 13): able to reduce the lipidogenic stimulus; influence of times of treatment on inhibition of sebogenesis (Nile Red) (sebocytes [1]; FIG. 13): No differences were observed; inhibition of expression of mRNA of TNF-α induced by H2O2, higher dose (TNF-alpha; higher dose (0.5 mM), effect similar to troglitazone): complete inhibition; inhibition of expression of mRNA of TNF-α induced by H2O2 (TNF-alpha; two higher doses (0.1 mM; 0.5 mM)): able to inhibit; cellular vitality (MTT) [2]: did not show any effect on cellular vitality; fatty acid assay of lipid extract (lipidogenic stimulus) (sebocytes [3]; FIG. 12A): reduced; squalene analysis of lipid extract (sebocytes [3]; FIG. 12B): confirmed; inhibition of mRNA expression of IL-6 induced by IFN-γ (IL-6 [4]): inhibit the expression of the inflammatory cytokine induced by presence of IFN-γ which does not appear to be dose-dependent; cell vitality (MTT) (sebocytes [5]): no effects on cell vitality; inhibition of protein expression of IL-6 induced by LPS (IL-6 [6]): inhibit, in dose-dependent manner
